Among the data in patent US20070032477A1, “Pteridine derivatives useful for making pharmaceutical compositions” (priority 2003, published 2007) are IC50 values, retold here.

A short description of assay [1]: Mixed lymphocyte reaction (MLR) assay. The format is cell-based, human. Conditions: Homo sapiens, Lymphocyte; lowest concentration giving 50% suppression of the MLR; [3H]-thymidine.
The subject of assay [2] is production of IL-1 β by PBMC in response to stimulation by LPS. Description: IL-1 β assay. The format is cell-based, human. As to conditions: LPS 1 μg/ml, 72 hours, sandwich ELISA. As to the method:
Peripheral blood mononuclear cells (herein referred as PBMC), in response to stimulation by lipopolysaccharide (LPS), a gram-negative bacterial endotoxin, produce various […], in particular human IL-1 β. Inhibition of the activation of PBMC can therefore be measured by the level of suppression of the production of IL-1 β by PBMC in response to stimulation by LPS.
Such inhibition measurement was performed as follows: PBMC were isolated from heparinized peripheral blood by density gradient centrifugation over Lymphoprep (commercially available from Nycomed, Norway). LPS was then added to the PMBC suspension in complete medium (10^6 cells/ml) at a final concentration of 1 μg/ml. The pteridine derivative to be tested was added at different concentrations (0.1 μM, 1 μM and 10 μM) and the cells were incubated at 37° C. for 72 hours in 5% CO2. The supernatants were collected, then IL-1 β concentrations were measured with an anti-IL-1 β antibody in a sandwich ELISA. The calorimetric reading of the ELISA was measured by a Multiskan RC plate reader (commercially available from ThermoLabsystems, Finland) at 450 nm (reference wavelength: 690 nm). Data analysis was performed with Ascent software 2.6. (also from ThermoLabsystems, Finland): a standard curve (recombinant human IL-1 β) was drawn and the amount (pg/ml) of each sample on the standard curve was determined.
The % suppression of human IL-1 β by the pteridine derivatives (drugs) of this invention was calculated using the formula: [formula]

The test system of assay [3] is production of TNF-α by PBMC in response to stimulation by LPS. Description: TNF-α assay. The format is cell-based, human. As to conditions: LPS 1 μg/ml, 72 hours, sandwich ELISA. In short, it runs like this: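 Cells were LPS-stimulated (1 μg/ml final) peripheral blood mononuclear cells at 10^6/ml, exposed 72 h at 37 °C to 0.1, 1 or 10 μM test compound.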
For assay [4], the system named is mixed lymphocyte reaction (PBMC with allogeneic PBMC or Eppstein-Barr Virus-transformed human B cells as stimulator cells). Nature of the assay: Mixed lymphocyte reaction (MLR) assay. The assay is classed as cell-based. Conditions: lowest concentration giving 50% suppression of the MLR; [3H]-thymidine.

In assay [1], `COc1ccc(-c2cnc3nc(NCc4cccs4)nc(N)c3n2)cc1OC` [Example 80, 2-(2-thienylmethylamino)-4-amino-6-(3,4-dimethoxyphenyl)pteridine] registered an IC50 of 4.7 µM.
On to `COc1ccc(-c2cnc3nc(N)nc(N4CCN(C(=O)C=Cc5ccccc5)CC4)c3n2)cc1OC` [Example 37, 2-amino-4-[(N-cinnamoyl)-piperazin-1-yl]-6-(3,4-dimethoxyphenyl)pteridine], for which the IC50 was 3.3 µM in assay [2], 0.1 µM in assay [3] and under 0.001 µM in assay [4].
For `COc1ccc(-c2cnc3nc(N)nc(N4CCN(CCc5ccccc5)CC4)c3n2)cc1OC` [Example 159, 2-amino-4-(N-phenethylpiperazin-1-yl)-6-(3,4-dimethoxyphenyl)pteridine], in that order: 5.4 µM, 0.02 µM and 0.11 µM.
For `COc1ccc(-c2cnc3nc(N)nc(N4CCN(c5ccccc5)CC4)c3n2)cc1OC` [Example 64, 2-amino-4-(N-phenylpiperazin-1-yl)-6-(3,4-dimethoxyphenyl)pteridine], in that order: 4.4 µM, 0.05 µM and 0.4 µM.
For `COc1ccc(-c2cnc3nc(N)nc(N4CCN(C(=O)Oc5ccccc5OC)CC4)c3n2)cc1OC` [Example 93], the concentration for half-maximal inhibition (IC50) in assay [2] was determined as 4.5 µM; in assay [3], 0.05 µM; in assay [4] it was 0.07 µM.
The like results for “2-amino-4-((1-phenylethyl)-piperazin-1-yl)-6-(3,4-dimethoxyphenyl)pteridine [Example 152]” were, in that order, 3.6 µM, 0.3 µM and 1.2 µM.
Regarding `COc1ccc(-c2cnc3nc(N)nc(N4CCN(C(=O)c5ccc(Cl)cc5)CC4)c3n2)cc1OC` [Example 12], the figures for the IC50 in assay [2], in assay [3] and in assay [4] were 5 µM, 0.2 µM and 0.3 µM, respectively.
The compound `COc1ccc(-c2cnc3nc(NCc4ccccc4)nc(N)c3n2)cc1OC` [Example 82, 2-benzylamino-4-amino-6-(3,4-dimethoxyphenyl)pteridine] came in with an IC50 in assay [1] of 3.2 µM.
On to `COc1ccc(-c2cnc3nc(N)nc(N4CCN(CCOc5ccccc5)CC4)c3n2)cc1OC` [Example 154], for which the IC50 turned out to be 2.2 µM in assay [2], 0.03 µM in assay [3] and 0.1 µM in assay [4].
For `COc1ccc(-c2cnc3nc(N)nc(N4CCN(c5ccc(Cl)c(Cl)c5)CC4)c3n2)cc1OC` [Example 150, 2-amino-4-((3,4-dichlorophenyl)-piperazin-1-yl)-6-(3,4-dimethoxyphenyl)pteridine], in that order: 3.5 µM, 0.3 µM and 1 µM.
For `COc1ccc(-c2cnc3nc(N)nc(N4CCN(C(=O)Oc5ccccc5)CC4)c3n2)cc1OC` [Example 50, 2-amino-4-[(N-phenoxycarbonyl)-piperazin-1-yl]-6-(3,4-dimethoxy-phenyl)pteridine], in that order: 5.5 µM, 0.02 µM and 0.065 µM.
Consider `COc1ccc(-c2cnc3nc(N)nc(N4CCN(CC5CCCCC5)CC4)c3n2)cc1OC` [Example 123], for which the IC50 in assay [2] turned out to be 4.2 µM; in assay [3] it was 0.8 µM; in assay [4] it was 3.9 µM.
For `CC(=O)N1CCN(c2nc(N)nc3ncc(-c4ccc(C)cc4)nc23)CC1` [Example 56, 2-amino-4-(N-acetylpiperazin-1-yl)-6-(4-tolyl)pteridine], in that order: 8.7 µM, 3.7 µM and 2.8 µM.
For `COc1ccc(-c2cnc3nc(N)nc(N4CCN(c5nccs5)CC4)c3n2)cc1OC` [Example 178], in that order: 4 µM, 0.15 µM and 1.3 µM.
The like results for `COc1ccc(-c2cnc3nc(N)nc(N4CCN(Cc5cccc(C)c5)CC4)c3n2)cc1OC` [Example 136, 2-amino-4-(1-(3-methyl-benzyl)piperazinyl)-6-(3,4-dimethoxyphenyl)pteridine] were, in that order, 4.7 µM, 0.8 µM and 1.4 µM.
“2-amino-4-((2-pyridyl)-piperazin-1-yl)-6-(3,4-dimethoxyphenyl)pteridine [Example 146]”: the IC50 in assay [2] is 5 µM; in assay [3], 0.2 µM; in assay [4], 0.2 µM.
`CCCCCN1CCN(c2nc(N)nc3ncc(-c4ccc(OC)c(OC)c4)nc23)CC1` [Example 167, 2-amino-6-(3,4-dimethoxyphenyl)-4-(1-pentyl-piperazin-1-yl)pteridine]: the results for the IC50 in assay [2], in assay [3] and in assay [4] were 3.7 µM, 0.3 µM and 3.8 µM, respectively.
The like results for `COc1ccc(-c2cnc3nc(N)nc(N4CCN(C(=O)Oc5ccc6ccccc6c5)CC4)c3n2)cc1OC` [Example 98] were, in that order, 6.2 µM, 0.08 µM and 0.12 µM.
On to `COc1ccc(-c2cnc3nc(N)nc(N4CCN(C(=O)N(C(C)C)C(C)C)CC4)c3n2)cc1OC` [Example 20, 2-amino-4-[(N-diisopropylcarbamoyl)-piperazin-1-yl]-6-(3,4-dimethoxy-phenyl)pteridine], for which the IC50 in assay [2] is 8.5 µM; in assay [3], 0.03 µM; in assay [4], 0.5 µM.
`COc1ccc(-c2cnc3nc(N)nc(N4CCN(CCn5cccc5)CC4)c3n2)cc1OC` [Example 153]: the figures for the IC50 in assay [2], in assay [3] and in assay [4] were 2 µM, 0.1 µM and 0.2 µM, respectively.
For `COc1ccc(-c2cnc3nc(N)nc(N4CCN(C(=O)Nc5ccc(C)cc5)CC4)c3n2)cc1OC` [Example 101, 2-amino-4-(N-4-methylphenyl-carbamoyl-piperazin-1-yl)-6-(3,4-dimethoxyphenyl)pteridine], in that order: 5.6 µM, 0.43 µM and 0.0008 µM.
The like results for `COc1ccc(-c2cnc3nc(N)nc(N4CCN(c5ccc(Cl)cc5)CC4)c3n2)cc1OC` [Example 162, 2-amino-4-((4-chlorophenyl)-piperazin-1-yl)-6-(3,4-dimethoxyphenyl)pteridine] were, in that order, 3.8 µM, 0.4 µM and 0.8 µM.
`COc1ccc(-c2cnc3nc(N4CCCCC4)nc(N)c3n2)cc1OC` [Example 87, 4-amino-2-piperidino-6-(3,4-dimethoxyphenyl)pteridine]: inhibition in assay [1] was half-maximal at 8.4 µM (IC50).
For the compound `COc1ccc(-c2cnc3nc(N)nc(N4CCN(CCCc5ccccc5)CC4)c3n2)cc1OC` [Example 149], the IC50 came out at 4.9 µM in assay [2], 0.3 µM in assay [3] and 0.5 µM in assay [4].
For “2-amino-4-((3-methoxyphenyl)-piperazin-1-yl)-6-(3,4-dimethoxyphenyl)pteridine [Example 148]”, in that order: 7.2 µM, 0.3 µM and 0.3 µM.
For `COc1ccc(-c2cnc3nc(N)nc(N4CCN(c5ccc(C)c(C)c5)CC4)c3n2)cc1OC` [Example 174, 2-amino-6-(3,4-dimethoxyphenyl)-4-((3,4-dimethylphenyl)-piperazin-1-yl)pteridine], in that order: 5 µM, 0.11 µM and 0.5 µM.
The like results for `COc1ccc(-c2cnc3nc(N)nc(N4CCN(C(=S)N(C)C)CC4)c3n2)cc1OC` [Example 49, 2-amino-4-[(N-dimethylthiocarbamoyl)-piperazin-1-yl]-6-(3,4-dimethoxy-phenyl)pteridine] were, in that order, 2.2 µM, 0.07 µM and 0.4 µM.
In the case of `COc1ccc(-c2cnc3nc(N)nc(N4CCN(CC(=O)Nc5nccs5)CC4)c3n2)cc1OC` [Example 187, 2-amino-4-[2-(piperazin-1-yl)-acetic acid N-(2-thiazolyl)-amide]-6-(3,4-dimethoxyphenyl)pteridine], the IC50 in assay [2] amounted to 2.4 µM; in assay [3], 0.06 µM; in assay [4], 0.1 µM.
As for `COc1ccc(N2CCN(c3nc(N)nc4ncc(-c5ccc(OC)c(OC)c5)nc34)CC2)cc1` [Example 161, 2-amino-4-((4-methoxyphenyl)-piperazin-1-yl)-6-(3,4-dimethoxyphenyl)pteridine], the IC50 in assay [2] worked out at 3.2 µM; in assay [3], 0.06 µM; in assay [4], 0.4 µM.
The like results for `CCC(CC)N1CCN(c2nc(N)nc3ncc(-c4ccc(OC)c(OC)c4)nc23)CC1` [Example 166, 2-amino-6-(3,4-dimethoxyphenyl)-4-(pent-3-yl-piperazin-1-yl)pteridine] were, in that order, 4.4 µM, 0.8 µM and 5.3 µM.
